What was measured:
Test in all cases: relative viability (nuclei count vs DMSO), 5 days (fraction); higher = more cells survive
[1] = compound: O=C1NC(=O)[C@@H](c2cn3c4c(cccc24)CCC3)[C@@H]1c1c[nH]c2ccccc12 [Tivantinib] + N=C(N)NC(=N)NCCc1ccccc1 [Phenformin] (partner 250 µM)
Summary of the method: (§1)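 Lung cancer cell lines were pin-tool dosed in 1536-well plates on the day after seeding, with either a lone drug or a fixed anchor-drug dose plus five library-drug doses (not always all listed) in √10 steps. Nuclei were counted on 4× images after 5 days. Relative viability is the ratio of treated-well to vehicle-well nuclei counts, with each value a median of duplicate plates.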

[2] = compound: CC1(COc2ccc3c(c2)ncn3-c2ccc3cccc(N4CCC(N)CC4)c3n2)COC1 [Crenolanib] + CC1(C)CCC(c2ccc(Cl)cc2)=C(CN2CCN(c3ccc(C(=O)NS(=O)(=O)c4ccc(N[C@H](CCN5CCOCC5)CSc5ccccc5)c(S(=O)(=O)C(F)(F)F)c4)cc3)CC2)C1 [Navitoclax] (partner 0.5 µM)
Summary of the method: as §1

[3] = compound: CC1(COc2ccc3c(c2)ncn3-c2ccc3cccc(N4CCC(N)CC4)c3n2)COC1 [Crenolanib] + CC(C)C[C@H](NC(=O)[C@H](Cc1ccccc1)NC(=O)c1cnccn1)B(O)O [Bortezomib] (partner 0.002 µM)
Summary of the method: as §1

[4] = compound: CC1(COc2ccc3c(c2)ncn3-c2ccc3cccc(N4CCC(N)CC4)c3n2)COC1 [Crenolanib] + Nc1nc2[nH]cc(CCc3ccc(C(=O)N[C@@H](CCC(=O)O)C(=O)O)cc3)c2c(=O)[nH]1 [Pemetrexed] (partner 0.2 µM)
Summary of the method: as §1

Row | Cell Line | relative viability ([1]; first compound 0.01 µM) | relative viability ([1]; first compound 0.03162 µM) | relative viability ([1]; first compound 0.1 µM) | relative viability ([1]; first compound 0.3162 µM) | relative viability ([2]; first compound 0.01 µM) | relative viability ([2]; first compound 0.03162 µM) | relative viability ([2]; first compound 0.1 µM) | relative viability ([2]; first compound 0.3162 µM) | relative viability ([2]; first compound 1 µM) | relative viability ([3]; first compound 0.01 µM) | relative viability ([3]; first compound 0.03162 µM) | relative viability ([3]; first compound 0.1 µM) | relative viability ([3]; first compound 0.3162 µM) | relative viability ([3]; first compound 1 µM) | relative viability ([4]; first compound 0.01 µM) | relative viability ([4]; first compound 0.03162 µM) | relative viability ([4]; first compound 0.1 µM) | relative viability ([4]; first compound 0.3162 µM) | relative viability ([4]; first compound 1 µM)
1 | HCC-78 | 0.682 | 0.711 | 0.689 | 0.533 | 0.754 | 0.8 | 0.726 | 0.727 | 0.764 | 0.309 | 0.454 | 0.638 | 0.499 | 0.438 | 0.864 | 1.01 | 0.909 | 0.956 | 0.865
2 | HCC-366 | 0.63 | 0.637 | 0.598 | 0.635 | 1.03 | 1.12 | 1.03 | 1.23 | 1.01 | 1.01 | 1.1 | 0.902 | 1.12 | 0.949 | 0.179 | 0.161 | 0.171 | 0.181 | 0.157
3 | HCC-827 | 0.338 | 0.466 | 0.379 | 0.166 | 0.976 | 1.03 | 0.978 | 1.07 | 0.995 | 1.08 | 0.962 | 0.963 | 1.04 | 0.933 | 0.256 | 0.277 | 0.195 | 0.26 | 0.268
4 | HOP-62 | 0.708 | 0.524 | 0.65 | 0.821 | 1.08 | 0.958 | 0.81 | 1.06 | 1.12 | 1.01 | 0.488 | 0.743 | 0.317 | 0.309 | 0.322 | 0.345 | 0.373 | 0.362 | 0.417
5 | LC-2-ad | 0.563 | 0.491 | 0.595 | 0.541 | 0.492 | 0.48 | 0.367 | 0.647 | 0.54 | 1.09 | 0.959 | 0.98 | 1.18 | 0.99 | 0.265 | 0.287 | 0.277 | 0.291 | 0.261
6 | LCLC-97TM1 | 0.456 | 0.496 | 0.453 | 0.388 | 0.489 | 0.525 | 0.489 | 0.473 | 0.445 | 0.454 | 0.396 | 0.69 | 0.896 | 0.699 | 0.192 | 0.188 | 0.182 | 0.197 | 0.184
7 | LOU-NH91 | 0.689 | 0.715 | 0.702 | 0.615 | 0.853 | 0.702 | 0.645 | 0.641 | 0.737 | 0.336 | 0.474 | 0.45 | 0.49 | 0.513 | 0.399 | 0.45 | 0.353 | 0.423 | 0.383
8 | LU99A | 0.852 | 0.805 | 0.804 | 0.942 | 0.989 | 0.802 | 0.846 | 0.893 | 0.964 | 1.23 | 1.28 | 0.983 | 1.34 | 1.05 | 0.22 | 0.204 | 0.151 | 0.197 | 0.198
9 | LXF-289 | 0.536 | 0.542 | 0.528 | 0.504 | 0.92 | 0.977 | 0.873 | 1 | 0.929 | 1.07 | 0.996 | 0.935 | 1 | 0.95 | 0.853 | 0.905 | 0.865 | 0.922 | 0.897
10 | NCI-H23 | 0.732 | 0.886 | 0.749 | 0.792 | 0.805 | 0.992 | 0.899 | 1.03 | 0.822 | 0.892 | 1.2 | 0.865 | 1.16 | 0.696 | 0.761 | 0.62 | 0.644 | 0.817 | 0.615
11 | NCI-H322M | 0.753 | 0.708 | 0.754 |  | 1.12 | 1.14 | 1.19 | 1.28 | 1.38 | 1.36 | 0.923 | 1.1 | 1.27 | 1.4 | 0.597 | 0.583 | 0.631 | 0.6 | 0.605
12 | NCI-H441 | 0.872 | 0.84 | 0.777 | 0.828 | 0.487 |  | 0.815 | 0.639 | 0.683 | 0.29 |  | 0.535 | 0.446 | 0.557 | 0.261 | 0.278 | 0.269 | 0.312 | 0.273
13 | NCI-H460 | 0.532 | 0.509 | 0.474 | 0.563 | 1.24 | 1.4 | 0.932 | 1.15 | 1.15 | 1.05 | 1.2 | 1.01 | 1.6 | 0.954 | 0.063 | 0.067 | 0.075 | 0.0642 | 0.0669
14 | NCI-H520 | 0.669 | 0.393 | 0.536 | 0.547 | 0.962 | 1.13 | 1.01 | 1.15 | 1.01 | 0.481 | 0.528 | 0.824 | 0.779 | 0.628 | 0.701 | 0.792 | 0.628 | 0.684 | 0.702
15 | NCI-H596 | 0.665 | 0.651 | 0.715 | 0.771 | 1.02 | 1.04 | 0.805 | 0.899 | 0.822 | 0.929 | 1.07 | 0.998 | 0.981 | 1.17 | 0.462 | 0.481 | 0.47 | 0.513 | 0.507
16 | NCI-H647 | 0.583 | 0.476 | 0.437 | 0.619 | 1.13 | 1.22 | 0.967 | 1.11 | 0.98 | 1.03 | 0.94 | 0.974 | 1.16 | 0.888 | 0.202 | 0.19 | 0.201 | 0.209 | 0.217
17 | NCI-H838 | 0.705 | 0.554 | 0.464 | 0.514 | 1.19 | 1.16 | 1.21 | 1.2 | 1.02 | 0.774 | 0.796 | 0.984 | 0.77 | 0.566 | 0.247 | 0.253 | 0.258 | 0.264 | 0.281

Source: the supplement of paper PMC10307832
